The structures appear in SMILES notation. Starred links: 1 amine or outer side, 2 acyl side, 3 side chain; linkers in the order of their positions; H or OH if unused. Residues, ends and D or L forms follow the SMILES beside them. Groups on a side chain read outwards from the residue. *: point of attachment. γGlu = O=C(O)[C@H](CCC(=O)[*:2])N[*:1]; Palmitoyl = CCCCCCCCCCCCCCCC(=O)*

Series [1] relates to C57BL/6 mice. As to the kind of experiment: Glucose‐stimulated plasma insulin in mice. The series is classed as in vivo. The note with it: peptide 25 nmol/kg with glucose 18 mmol/kg i.p., versus glucose control; n = 6. The method, then:
Acute in vivo studies were conducted in groups (n = 6) of 4‐month‐old male C57BL/6 mice (Envigo, Huntington, UK). All mice were maintained on standard rodent chow (10% fat, 30% protein, and 60% carbohydrate; Trouw Nutrition, Northwich, UK), and drinking water provided ad libitum. Mice were housed individually and kept in a temperature‐controlled environment (22 ± 2°C), with a 12‐h light/dark cycle. Experiments were carried out in accordance with the UK Animal Scientific Procedures Act 1986 as well as being approved by Ulster University Animal Ethics Review Committee (AWERB) committee and protected by the UK Home Office Animal project license number PPL2902, approved on April 26, 2021. Acute effects of test peptides on food intake were tested in overnight (16 h) fasted mice. Briefly, fasted mice were administered an intraperitoneal (i.p.) injection of saline vehicle (0.9% (w/v) NaCl) alone or in combination with test peptides (each at 25, 75, or 200 nmol/kg bw) and cumulative food intake measured at regular intervals, to assess the pharmacodynamic profile of the test peptides. For food intake studies, mice were provided with preweighed rodent maintenance diet in their food hopper at t = 0 min, which was then re‐weighed at each timepoint with all due care taken to account for any wastage or crumbling of the food pellets. In this regard, the investigator was present at all times during the 180‐min test period to ensure accuracy and consistency in all measurements. Furthermore, effects of PP or related peptides (25 nmol/kg bw) on glucose homeostasis and insulin secretion were evaluated in overnight fasted mice following i.p. injection of glucose alone (18 mmol/kg bw) or in combination with PP peptides (each at 25 nmol/kg bw). […] Blood glucose was measured immediately using a hand‐held Ascencia Contour blood glucose meter (Bayer Healthcare, Newbury, Berkshire, UK). For plasma insulin, blood was collected in chilled fluoride/heparin‐coated microcentrifuge tubes (Sarstedt, Numbrecht, Germany) and centrifuged using a Beckman microcentrifuge (Beckman Instruments, Galway, Ireland) for 10 min at 12,000 rpm. Plasma was separated and stored at −20°C, until determination of plasma insulin by radioimmunoassay.[23]

For series [2], the system named is C57BL/6 mice. As to the kind of experiment: Acute food intake in overnight fasted mice. The class given is in vivo. The note with it: i.p., overnight fasted mice. The method, then:
(§1) Acute in vivo studies were conducted in groups (n = 6) of 4‐month‐old male C57BL/6 mice (Envigo, Huntington, UK). All mice were maintained on standard rodent chow (10% fat, 30% protein, and 60% carbohydrate; Trouw Nutrition, Northwich, UK), and drinking water provided ad libitum. Mice were housed individually and kept in a temperature‐controlled environment (22 ± 2°C), with a 12‐h light/dark cycle. Experiments were carried out in accordance with the UK Animal Scientific Procedures Act 1986 as well as being approved by Ulster University Animal Ethics Review Committee (AWERB) committee and protected by the UK Home Office Animal project license number PPL2902, approved on April 26, 2021. Acute effects of test peptides on food intake were tested in overnight (16 h) fasted mice. Briefly, fasted mice were administered an intraperitoneal (i.p.) injection of saline vehicle (0.9% (w/v) NaCl) alone or in combination with test peptides (each at 25, 75, or 200 nmol/kg bw) and cumulative food intake measured at regular intervals, to assess the pharmacodynamic profile of the test peptides. For food intake studies, mice were provided with preweighed rodent maintenance diet in their food hopper at t = 0 min, which was then re‐weighed at each timepoint with all due care taken to account for any wastage or crumbling of the food pellets. In this regard, the investigator was present at all times during the 180‐min test period to ensure accuracy and consistency in all measurements. Furthermore, effects of PP or related peptides (25 nmol/kg bw) on glucose homeostasis and insulin secretion were evaluated in overnight fasted mice following i.p. injection of glucose alone (18 mmol/kg bw) or in combination with PP peptides (each at 25 nmol/kg bw).

Series [3] is described as follows: In vitro DPP‐4 degradation. The series is classed as in vitro ADME, human. The note with it: isolated enzyme; peptide 50 μg with purified human DPP‐4 (5 μL, 0.01 U/L), 37°C, 8 h; stopped with 10% (v/v) trifluoroacetic acid; rp‐HPLC C‐18, UV 214 nm; peaks by MALDI‐MS; read-out: % intact peptide after 8 h DPP‐4 incubation. The method, then: PP peptides (50 μg) were incubated at 37°C for 0–8 h with 5 μL of purified human DPP‐4 enzyme (0.01 U/L, Sigma‐Aldrich, Gillingham, UK). Degradation reactions were terminated via the addition of 10 μL 10% (v/v) trifluoroacetic acid/water solution. Reaction mixes were separated by reverse phase rp‐HPLC using a Phenomenex C‐18 analytical column (250 × 4.6 mm^2) with UV absorbance detection at 214 nm (ThermoQuest SpectraSystem UV2000 detector). HPLC peaks of interest were collected and analyzed by MALDI‐TOF MS on a Perseptive Biosystems Voyager‐DE Biospectrometry (Hertfordshire, UK).

In series [4] the test system is C57BL/6 mice. As to the kind of experiment: Glucose tolerance in mice. The class given is in vivo. As to conditions: PP peptide 25 nmol/kg with CCK‐8 25 nmol/kg and glucose 18 mmol/kg i.p.; n = 6. The procedure:
as §1, with “bw). […] Blood glucose was measured immediately using a hand‐held Ascencia Contour blood glucose meter (Bayer Healthcare, Newbury, Berkshire, UK). […]” for “bw).”

`CCCCCCCCCCCCCCCC(=O)N[C@@H](CCC(=O)NCCCC[C@H](NC(=O)[C@H](C)NC(=O)[C@H](CC(N)=O)NC(=O)[C@H](CC(=O)O)NC(=O)CNC(=O)[C@@H]1CCCN1C(=O)[C@H](Cc1ccc(O)cc1)NC(=O)[C@@H](NC(=O)[C@@H]1CCCN1C(=O)[C@H](CCC(=O)O)NC(=O)[C@@H]1CCCN1C(=O)[C@@H]1CCCN1C(=O)[C@H](C)N)C(C)C)C(=O)N1CCC[C@H]1C(=O)N[C@@H](CCC(=O)O)C(=O)N[C@@H](CCC(N)=O)C(=O)N[C@@H](CCSC)C(=O)N[C@@H](C)C(=O)N[C@@H](CCC(N)=O)C(=O)N[C@@H](Cc1ccc(O)cc1)C(=O)N[C@@H](C)C(=O)N[C@@H](C)C(=O)N[C@@H](CC(=O)O)C(=O)N[C@@H](CC(C)C)C(=O)N[C@@H](CCCNC(=N)N)C(=O)N[C@@H](CCCNC(=N)N)C(=O)N[C@@H](Cc1ccc(O)cc1)C(=O)N[C@H](C(=O)N[C@@H](CC(N)=O)C(=O)N[C@@H](CCSC)C(=O)N[C@@H](CC(C)C)C(=O)N[C@H](C(=O)N[C@@H](CCCNC(=N)N)C(=O)N1CCC[C@H]1C(=O)N[C@@H](CCCNC(=N)N)C(=O)N[C@@H](Cc1ccc(O)cc1)C(N)=O)[C@@H](C)O)[C@@H](C)CC)C(=O)O` [[P^3,K^13Pal]PP] (H-APPEPVYPGDNAK([γGlu-Palmitoyl])PEQMAQYAADLRRYINMLTRPRY-NH2; N-terminus assumed): in the series with C57BL/6 mice [1], the “glucose‐induced insulin secretion (plasma insulin)” value is on record as “slightly decreasing (p = <0.05 to 0.01)”. Further, the “food intake in overnight fasted mice, summary in discussion” value in the series on C57BL/6 mice [2] is given as “retained impressive effects to restrict food intake”. For the same compound, the remaining at 8 h in series [3] was more than 99%. Besides, the “effect on CCK‐8 benefit on glucose disposal” value in the series on C57BL/6 mice [4] is “mildly impair the overall glucose‐lowering action of CCK‐8”.
